# Results published in paper PMC4186475 (Influenza and Other Respiratory Viruses, 2013).
# Legend:
# [1] = test system: neuraminidase (NA) of influenza B viruses; type: biochemical, influenza B virus
# [2] = test system: neuraminidase (NA) of variant influenza A (H3N2)v viruses; type: biochemical, influenza A (H3N2)v virus
# [3] = test system: neuraminidase (NA) of influenza A (H1N1)pdm09 viruses; type: biochemical, influenza A (H1N1)pdm09 virus
structure (smiles),measurement,setting,value
"CCOC(=O)C1=C[C@@H](OC(CC)CC)[C@H](NC(C)=O)[C@@H](N)C1 [Oseltamivir, Oseltamivir (carboxylate)]","Fold change in IC50 of test viruses, Approach #2",[1],5–8 (2) fold
same,fold change in IC50 of outliers,[2],5·30 (35) fold
same,"Fold change in IC50 of test viruses, Approach #1",[3],319–1474 (8) fold
same,"Fold change in IC50 of test viruses, Approach #2",[3],182–1403 (8) fold
same,"Fold change in IC50 of test viruses, Approach #3",[3],213–1637 (8) fold
same,fold change in IC50 of outliers,[3],38-27-294·72 (213–1637) fold
"CC(=O)N[C@H]1[C@H]([C@H](O)[C@H](O)CO)OC(C(=O)O)=C[C@@H]1N=C(N)N [Zanamivir, zanamivir]","Fold change in IC50 of test viruses, Approach #2",[1],7 (1) fold
same,fold change in IC50 of outliers,[2],35·74 (70) fold
